“And” between values parts separate entries of the source, which are not always exact repeats. Equal entries are not always repeated.
System: Mycobacterium tuberculosis growth in 7H9 media
Assay: M. tuberculosis growth inhibition in 7H9, dose response, 7H9 media, purified and synthesized samples, set 3 (AID 504646)
Details: for IC90: 90% growth inhibition concentration

Structure (SMILES)	IC50	IC90
Cc1nc(SCC(=O)NC2CCCC2)[nH]c(=O)c1C	7.97 µM	13.4 µM
COc1cc(NC(=O)C/C(C)=N/NC(=O)c2ccccn2)c(OC)cc1Cl	1.65 µM	4.49 µM
CCOc1ccc(NC(=O)CSc2nc(O)c(C)c(=O)n2-c2ccc(F)cc2)cc1	18.6 µM	> 25 µM
CCc1c(C)nc(SCC(=O)Nc2ccc3c(c2)OCCO3)[nH]c1=O	14.1 µM	> 25 µM
O=C(CSc1nc2ccccc2c(=O)[nH]1)NC1CCCCC1	0.04 µM	0.08 µM
O=C(c1ccc(CNc2c(N3CCCC3)c(=O)c2=O)cc1)N1CCN(C2CCCCC2)CC1	–	> 25 µM
Cc1cccc(-c2oc3ccc(-c4ccc5c(c4)OCO5)cc3c2C#Cc2cncn2C)c1	1.78 µM	2.69 µM
CCOC(=O)CSc1ncnc2c1cnn2-c1ccccc1	11.2 µM	> 25 µM
COC(=O)CSc1ncnc2c1cnn2-c1ccc(C)cc1C	4.72 µM	7.3 µM
CCC(Sc1ncnc2c1nnn2-c1ccc(F)cc1)C(=O)OC (stereo not given)	9.59 µM	> 25 µM
Cc1cc(Br)ccc1NC(=O)c1cnc(N2CCN(c3ccccn3)CC2)c2ccccc12	0.28 µM	2.61 µM
Nc1c(C(=O)NC2CCCCC2)nsc1C(=O)OCC(=O)NC1CCCCC1	1.11 µM	2.46 µM
O=C1C(Br)=Cc2cccc3cccc1c23	0.16 µM	0.79 µM
CC1CCN(C(=O)c2ccc(CNc3c(N4CCCC4)c(=O)c3=O)cc2)CC1	5.81 µM	6.65 µM
COC(=O)C(C)Oc1ccc(-c2nccc(-c3ccccn3)n2)cc1 (stereo not given)	2.11 µM	4.13 µM
Cc1ccc(NC(=O)C2C3/C=C\CCCCC32)cc1C (stereo not given)	1.43 µM	> 25 µM
CCOC(=O)C(C)Sc1ncnc2c1nnn2-c1ccc(F)cc1 (stereo not given)	0.85 µM and 3.12 µM	3.42 µM and 8.23 µM
Cc1cccc(/C=C/C(=O)c2ccc([N+](=O)[O-])o2)c1	0.1 µM	0.17 µM
CCOc1ccc(-c2cc(C)[n+](CCc3ccc(OC)c(OC)c3)c(-c3ccc(OCC)cc3)c2)cc1	0.6 µM	0.9 µM
CC1CCN(C(=O)C2CCN(c3nnc(-n4cccc4)s3)CC2)CC1	1.55 µM	2.91 µM
Cc1ccc(C(=O)N/N=C(/CC(=O)c2cccs2)C(F)(F)F)cc1	1.56 µM	2.37 µM

Structure (SMILES)	IC50	IC90
CC[N+](C)(CC)CCCCOc1ccc2c(c1)C(=O)c1cc(OCCCC[N+](C)(CC)CC)ccc1-2	1.42 µM	1.98 µM
CC(=O)c1ccc(NC(=O)c2ccc(CNc3c(N4CCOCC4)c(=O)c3=O)cc2)cc1	12.4 µM	> 25 µM
CCOC(=O)COc1ccc(/C=C2\NC(=S)N(CC)C2=O)cc1	1.94 µM	3.7 µM
O=C(c1ccc(CNc2c(N3CCOCC3)c(=O)c2=O)cc1)N1CC=C(c2ccccc2)CC1	0.66 µM	0.83 µM
CCOC(=O)c1ccc(NC(=O)Cn2ncc(Cl)c(Cl)c2=O)cc1	0.33 µM	1.2 µM
CCOC(=O)CSc1ncnc2c1cnn2-c1ccc(C)cc1	6.95 µM	> 25 µM
CC1CCCN(C(=O)c2ccc(CNc3c(N4CCCCC4)c(=O)c3=O)cc2)C1 (stereo not given)	1.39 µM	> 25 µM
Cc1cc(C)n2nc(N)c(N=Nc3ccccc3)c2n1	2.73 µM	3.69 µM
Cc1ccc(NC(=O)COC(=O)CCc2c[nH]c3ccccc23)cc1[N+](=O)[O-]	1.16 µM	4.23 µM
O=C(NCCc1ccc(Cl)cc1)C1CCC(CNc2c(N3CCCCC3)c(=O)c2=O)CC1 (stereo not given)	20.4 µM	> 25 µM
O=C(/C=C\c1cccs1)N1CCN(Cc2ccc3c(c2)OCO3)CC1	0.94 µM	> 25 µM
CNc1nc(SCc2ccccc2Cl)nc2c1CCCC2	1.15 µM	3.01 µM
Cc1nc(SCC(=O)NC2CCCCC2)[nH]c(=O)c1C	0.34 µM and 1.86 µM	0.83 µM and 3.17 µM
COc1ccc(N2CCN(C(=O)c3ccc(CNc4c(N5CCOCC5)c(=O)c4=O)cc3)CC2)cc1	2.16 µM	> 25 µM
O=C(/C=C/c1ccccc1)N1CCN(CCN2C(=O)c3cccc4cccc(c34)C2=O)CC1	2.16 µM	4.97 µM
CC1CC(C)CN(C(=O)c2ccc(CNc3c(N4CCCC4)c(=O)c3=O)cc2)C1 (stereo not given)	5.14 µM	> 25 µM
S=c1nc[nH]c2nc[nH]c12	1.38 µM	1.96 µM
COC(=O)C(C)Oc1ccc(Cc2ncc(C(F)(F)F)cc2Cl)cc1 (stereo not given)	2.66 µM	4.35 µM
O=C(NCC1COc2ccccc2O1)C1CCC(CNc2c(N3CCCCC3)c(=O)c2=O)CC1 (stereo not given)	–	> 25 µM
O=C(CSc1nc2c(c(=O)[nH]1)CCC2)Nc1ccc(F)cc1	10 µM	17.1 µM

From PubChem BioAssay AID504646 (Southern Research Specialized Biocontainment Screening …, 2011)
